# Entries after “also recorded” stand apart in the source; their conditions may differ.
# Legend:
# [1] = target: T1, COX-I (purified cyclooxygenase Type 1) (Ovis aries, UniProt P05979); assay: COX inhibition assay, purified cyclooxygenase (Type 1); format: biochemical, ram; conditions: FIG. 4
# T1 construct: purified cyclooxygenase from ram seminal vesicles; from tissue; host or cells: ram seminal vesicles
# T1 sequence (P05979 25-600): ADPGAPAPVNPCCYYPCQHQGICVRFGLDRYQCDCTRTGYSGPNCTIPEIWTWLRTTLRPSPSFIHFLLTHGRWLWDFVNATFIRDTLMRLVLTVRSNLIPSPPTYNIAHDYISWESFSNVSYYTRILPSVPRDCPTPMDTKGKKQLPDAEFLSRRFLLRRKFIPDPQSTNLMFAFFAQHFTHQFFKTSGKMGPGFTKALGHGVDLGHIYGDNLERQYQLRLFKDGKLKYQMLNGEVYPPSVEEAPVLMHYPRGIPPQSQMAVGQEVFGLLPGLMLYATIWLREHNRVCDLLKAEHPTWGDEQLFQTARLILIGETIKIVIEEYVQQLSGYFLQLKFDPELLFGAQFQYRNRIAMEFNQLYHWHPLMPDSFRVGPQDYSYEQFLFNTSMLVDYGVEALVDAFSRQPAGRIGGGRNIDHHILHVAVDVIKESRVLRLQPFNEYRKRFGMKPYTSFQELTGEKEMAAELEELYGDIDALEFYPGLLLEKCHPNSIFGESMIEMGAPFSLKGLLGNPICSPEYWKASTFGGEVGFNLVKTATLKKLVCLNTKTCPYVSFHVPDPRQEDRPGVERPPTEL
# [2] = tested on: PSA (prostate specific antigen) level; assay: Human clinical trial post-prostatectomy, PSA level; format: in vivo
# Protocol: A separate clinical trial was also performed on male patients who had prostate cancer, and as a result had their prostates removed. The study was conducted in patients with detectable PSA (prostate specific antigen) levels that were rising following radical prostatectomy, indicating recurrence of prostate cancer.
# 96 patients were enrolled in the prostate study: a double-blind, placebo-controlled, multi-center trial involving exisulind administered to the drug-receiving patients at 500 mg/day. […] Although a rising level of PSA is not itself a disease condition, it is widely regarded in the medical community as a surrogate marker indicative of the presence of recurrence of prostate cancer in such men.
# In addition to performing an analysis based on the differences in mean PSA levels between the exisulind and placebo groups as a whole, the interim analysis included subgroup analysis. The patients in the study were classified into high, intermediate and low risk groups in terms of their risk of developing metastatic disease. This classification was performed by a researcher at Johns Hopkins University, using the methodology published by them and other Johns Hopkins' researchers in the Journal of the American Medical Association (JAMA May 5, 1999, pp. 1591-97). To ascertain which study patients fell into which risk group, medical histories were supplied to the researcher who was blinded as to whether patients were on drug or placebo; they assigned study patients to the appropriate risk groups according to the above referenced published methodology.
# [3] = tested on: β-catenin in SW480 cells; assay: β-catenin level by Western blot in SW480 cells; format: cell-based, human; conditions: 48 hours
# Protocol: SW480 cells were treated with exisulind or vehicle (0.1% DMSO) for 48 hours. 50 μg supernatant of each cell lysates were loaded to 10% SDS-gel and blotted to nitrocellulose membrane, and the membrane was probed with rabbit-anti-β-catenin and rabbit anti-PKG antibodies.
# This observation was made by culturing SW480 cells with either 200-600 μM exisulind or vehicle (0.1% DMSO). The cells are harvested 48 hours post treatment and processed for immunoblotting. Immuno-reactive protein can be detected by western blot. […] Thus, using PKG activity in neoplastia as a screening tool to select compounds as anti-neoplastics is useful.
structure (smiles),measurement,setting,value
"CC1=C(CC(=O)O)c2cc(F)ccc2/C1=C\c1ccc(S(C)(=O)=O)cc1 [Exisulind, 5-fluoro-2-methyl-1-(p-methylsulfonylbenzylidene)-3-indenylacetic acid]",IC50,[1],> 10 mM
same,PSA levels vs placebo,[2]; 500 mg/day,significantly reduced as compared with the PSA levels of the placebo-treated group; also recorded: statistically significant differences in mean PSA levels between exisulind and placebo patients in both high and intermediate risk groups
same,"Mean PSA level, High Risk","[2]; 500 mg/day, High Risk, placebo 4.98",2.91
same,"Mean PSA level, Intermediate Risk","[2]; 500 mg/day, Intermediate Risk, placebo 6.24",2.95
same,"Mean PSA level, Overall","[2]; 500 mg/day, Overall, placebo 4.49",2.85
same,"""p"" value, mean PSA, High Risk","[2]; vs placebo, High Risk",0.0002
same,"""p"" value, mean PSA, Intermediate Risk","[2]; vs placebo, Intermediate Risk",0.0053
same,"""p"" value, mean PSA, Overall","[2]; vs placebo, Overall",0.0004
same,β-catenin level by Western blot,[3],drop of β-catenin

# From patent publication US6130053A, “Method for selecting compounds for inhibition of neoplastic lesions” (priority 1999, dated 2000)
